From the supplement of paper PMC10883282

Assays:
Experiment in all cases: relative viability vs DMSO control (72 h) (fraction); higher = more viable cells
HS729 = tested on: HS729
Summary of the method: (§1)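 Sarcoma cell lines were grown in 384-well plates seeded toward 80–90% confluence and exposed 24 h later to serially diluted compound. After 72 h at 37 °C and 5% CO2, with 0.1% DMSO vehicle and a 5 µM positive control on the plates, ATPLite was read. Relative viability, given as percent growth averaged over up to triplicate wells, was rescaled so that 1 is full and 0 is none.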

KHOS-240S = tested on: KHOS-240S
Summary of the method: as §1

SYO-1 = tested on: SYO-1
Summary of the method: as §1

MES-SA = tested on: MES-SA
Summary of the method: as §1

SW1353 = tested on: SW1353
Summary of the method: as §1

G401 = tested on: G401
Summary of the method: as §1

SW684 = tested on: SW684
Summary of the method: as §1

SK-LMS-1 = tested on: SK-LMS-1
Summary of the method: as §1

A204 = tested on: A204
Summary of the method: as §1

SW982 = tested on: SW982
Summary of the method: as §1

SW872 = tested on: SW872
Summary of the method: as §1

SK-ES-1 = tested on: SK-ES-1
Summary of the method: as §1

CN1CCN(CCOc2cc(OC3CCOCC3)c3c(Nc4c(Cl)ccc5c4OCO5)ncnc3c2)CC1 [Saracatinib]
Conditions	relative viability
A204, 0.00017 µM	1.03
A204, 0.00051 µM	1.05
A204, 0.00152 µM	1.06
A204, 0.00457 µM	1.06
A204, 0.01372 µM	1.04
A204, 0.04115 µM	1.01
A204, 0.1235 µM	0.992
A204, 0.3704 µM	0.963
A204, 1.111 µM	0.882
A204, 3.333 µM	0.679
A204, 10 µM	0.468
G401, 0.00017 µM	1.03
G401, 0.00051 µM	1.05
G401, 0.00152 µM	1.008
G401, 0.00457 µM	1.04
G401, 0.01372 µM	1.05
G401, 0.04115 µM	1.01
G401, 0.1235 µM	0.955
G401, 0.3704 µM	0.912
G401, 1.111 µM	0.86
G401, 3.333 µM	0.797
G401, 10 µM	0.668
HS729, 0.00017 µM	1
HS729, 0.00051 µM	0.991
HS729, 0.00152 µM	0.97
HS729, 0.00457 µM	0.983
HS729, 0.01372 µM	0.885
HS729, 0.04115 µM	0.867
HS729, 0.1235 µM	0.869
HS729, 0.3704 µM	0.792
HS729, 1.111 µM	0.691
HS729, 3.333 µM	0.62
HS729, 10 µM	0.627
KHOS-240S, 0.00017 µM	1.07
KHOS-240S, 0.00051 µM	1.08
KHOS-240S, 0.00152 µM	1.07
KHOS-240S, 0.00457 µM	1.07
KHOS-240S, 0.01372 µM	1.07
KHOS-240S, 0.04115 µM	1.08
KHOS-240S, 0.1235 µM	1.046
KHOS-240S, 0.3704 µM	0.934
KHOS-240S, 1.111 µM	0.802
KHOS-240S, 3.333 µM	0.614
KHOS-240S, 10 µM	0.451
MES-SA, 0.00017 µM	0.934
MES-SA, 0.00051 µM	0.933
MES-SA, 0.00152 µM	0.936
MES-SA, 0.00457 µM	0.94
MES-SA, 0.01372 µM	0.959
MES-SA, 0.04115 µM	0.923
MES-SA, 0.1235 µM	0.943
MES-SA, 0.3704 µM	0.925
MES-SA, 1.111 µM	0.837
MES-SA, 3.333 µM	0.692
MES-SA, 10 µM	0.622
SK-ES-1, 0.00017 µM	0.989
SK-ES-1, 0.00051 µM	1.05
SK-ES-1, 0.00152 µM	1.04
SK-ES-1, 0.00457 µM	1.01
SK-ES-1, 0.01372 µM	1.04
SK-ES-1, 0.04115 µM	1.01
SK-ES-1, 0.1235 µM	0.968
SK-ES-1, 0.3704 µM	0.951
SK-ES-1, 1.111 µM	0.903
SK-ES-1, 3.333 µM	0.81
SK-ES-1, 10 µM	0.604
SK-LMS-1, 0.00017 µM	1.03
SK-LMS-1, 0.00051 µM	1.06
SK-LMS-1, 0.00152 µM	1.05
SK-LMS-1, 0.00457 µM	1.04
SK-LMS-1, 0.01372 µM	1.02
SK-LMS-1, 0.04115 µM	1.05
SK-LMS-1, 0.1235 µM	0.973
SK-LMS-1, 0.3704 µM	0.933
SK-LMS-1, 1.111 µM	0.864
SK-LMS-1, 3.333 µM	0.71
SK-LMS-1, 10 µM	0.491
SW684, 0.00017 µM	1.11
SW684, 0.00051 µM	1.15
SW684, 0.00152 µM	1.16
SW684, 0.00457 µM	1.177
SW684, 0.01372 µM	1.15
SW684, 0.04115 µM	1.17
SW684, 0.1235 µM	1.14
SW684, 0.3704 µM	1.15
SW684, 1.111 µM	1.07
SW684, 3.333 µM	1.05
SW684, 10 µM	1.08
SW872, 0.00017 µM	1.07
SW872, 0.00051 µM	1.05
SW872, 0.00152 µM	1.06
SW872, 0.00457 µM	1.019
SW872, 0.01372 µM	1.05
SW872, 0.04115 µM	0.977
SW872, 0.1235 µM	0.9173
SW872, 0.3704 µM	0.828
SW872, 1.111 µM	0.693
SW872, 3.333 µM	0.655
SW872, 10 µM	0.59
SW982, 0.00017 µM	1.02
SW982, 0.00051 µM	1.09
SW982, 0.00152 µM	1.05
SW982, 0.00457 µM	1.06
SW982, 0.01372 µM	1.08
SW982, 0.04115 µM	1.08
SW982, 0.1235 µM	0.919
SW982, 0.3704 µM	0.739
SW982, 1.111 µM	0.568
SW982, 3.333 µM	0.486
SW982, 10 µM	0.442
SW1353, 0.00017 µM	1.03
SW1353, 0.00051 µM	0.988
SW1353, 0.00152 µM	1.02
SW1353, 0.00457 µM	0.996
SW1353, 0.01372 µM	0.945
SW1353, 0.04115 µM	0.929
SW1353, 0.1235 µM	0.891
SW1353, 0.3704 µM	0.843
SW1353, 1.111 µM	0.7072
SW1353, 3.333 µM	0.6847
SW1353, 10 µM	0.666
SYO-1, 0.00017 µM	1.02
SYO-1, 0.00051 µM	1.02
SYO-1, 0.00152 µM	0.971
SYO-1, 0.00457 µM	0.965
SYO-1, 0.01372 µM	0.958
SYO-1, 0.04115 µM	0.917
SYO-1, 0.1235 µM	0.91
SYO-1, 0.3704 µM	0.826
SYO-1, 1.111 µM	0.66
SYO-1, 3.333 µM	0.481
SYO-1, 10 µM	0.389

CNC(=O)c1cc(Oc2ccc(NC(=O)Nc3ccc(Cl)c(C(F)(F)F)c3)cc2)ccn1 [Sorafenib]
Conditions	relative viability
A204, 0.00017 µM	1.07
A204, 0.00051 µM	1.1
A204, 0.00152 µM	1.09
A204, 0.00457 µM	1.11
A204, 0.01372 µM	1.06
A204, 0.04115 µM	1.08
A204, 0.1235 µM	0.914
A204, 0.3704 µM	0.567
A204, 1.111 µM	0.51
A204, 3.333 µM	0.385
A204, 10 µM	0.157
G401, 0.00017 µM	0.997
G401, 0.00051 µM	1
G401, 0.00152 µM	1.01
G401, 0.00457 µM	1.01
G401, 0.01372 µM	1.04
G401, 0.04115 µM	1.01
G401, 0.1235 µM	1.02
G401, 0.3704 µM	0.988
G401, 1.111 µM	0.893
G401, 3.333 µM	0.684
G401, 10 µM	0.147
HS729, 0.00017 µM	0.948
HS729, 0.00051 µM	0.966
HS729, 0.00152 µM	0.939
HS729, 0.00457 µM	0.978
HS729, 0.01372 µM	0.946
HS729, 0.04115 µM	1.02
HS729, 0.1235 µM	0.937
HS729, 0.3704 µM	0.85
HS729, 1.111 µM	0.858
HS729, 3.333 µM	0.811
HS729, 10 µM	0.624
KHOS-240S, 0.00017 µM	1.04
KHOS-240S, 0.00051 µM	1.07
KHOS-240S, 0.00152 µM	1.09
KHOS-240S, 0.00457 µM	1.08
KHOS-240S, 0.01372 µM	1.06
KHOS-240S, 0.04115 µM	1.08
KHOS-240S, 0.1235 µM	1.08
KHOS-240S, 0.3704 µM	1.11
KHOS-240S, 1.111 µM	1.05
KHOS-240S, 3.333 µM	0.728
KHOS-240S, 10 µM	0.309
MES-SA, 0.00017 µM	0.928
MES-SA, 0.00051 µM	0.925
MES-SA, 0.00152 µM	0.909
MES-SA, 0.00457 µM	0.934
MES-SA, 0.01372 µM	0.923
MES-SA, 0.04115 µM	0.949
MES-SA, 0.1235 µM	1.01
MES-SA, 0.3704 µM	1.03
MES-SA, 1.111 µM	0.985
MES-SA, 3.333 µM	0.716
MES-SA, 10 µM	0.135
SK-ES-1, 0.00017 µM	0.978
SK-ES-1, 0.00051 µM	1.01
SK-ES-1, 0.00152 µM	1.04
SK-ES-1, 0.00457 µM	1.05
SK-ES-1, 0.01372 µM	1.07
SK-ES-1, 0.04115 µM	1.01
SK-ES-1, 0.1235 µM	1.06
SK-ES-1, 0.3704 µM	1.07
SK-ES-1, 1.111 µM	0.96
SK-ES-1, 3.333 µM	0.8855
SK-ES-1, 10 µM	0.252
SK-LMS-1, 0.00017 µM	1.1
SK-LMS-1, 0.00051 µM	1.07
SK-LMS-1, 0.00152 µM	1.11
SK-LMS-1, 0.00457 µM	1.1
SK-LMS-1, 0.01372 µM	1.1
SK-LMS-1, 0.04115 µM	1.12
SK-LMS-1, 0.1235 µM	1.05
SK-LMS-1, 0.3704 µM	1.09
SK-LMS-1, 1.111 µM	1.07
SK-LMS-1, 3.333 µM	0.713
SK-LMS-1, 10 µM	0.0735
SW684, 0.00017 µM	1.2
SW684, 0.00051 µM	1.2
SW684, 0.00152 µM	1.18
SW684, 0.00457 µM	1.19
SW684, 0.01372 µM	1.16
SW684, 0.04115 µM	1.2
SW684, 0.1235 µM	1.23
SW684, 0.3704 µM	1.27
SW684, 1.111 µM	1.32
SW684, 3.333 µM	0.938
SW684, 10 µM	0.276
SW872, 0.00017 µM	1.09
SW872, 0.00051 µM	1.09
SW872, 0.00152 µM	1.05
SW872, 0.00457 µM	1.06
SW872, 0.01372 µM	1.09
SW872, 0.04115 µM	1.09
SW872, 0.1235 µM	1.07
SW872, 0.3704 µM	1.09
SW872, 1.111 µM	1.07
SW872, 3.333 µM	1.02
SW872, 10 µM	0.553
SW982, 0.00017 µM	1.07
SW982, 0.00051 µM	1.06
SW982, 0.00152 µM	1.05
SW982, 0.00457 µM	1.07
SW982, 0.01372 µM	1.06
SW982, 0.04115 µM	1.07
SW982, 0.1235 µM	1.07
SW982, 0.3704 µM	1.07
SW982, 1.111 µM	1.06
SW982, 3.333 µM	0.992
SW982, 10 µM	0.559
SW1353, 0.00017 µM	0.98
SW1353, 0.00051 µM	1.02
SW1353, 0.00152 µM	1.01
SW1353, 0.00457 µM	1.01
SW1353, 0.01372 µM	1.01
SW1353, 0.04115 µM	1.01
SW1353, 0.1235 µM	0.992
SW1353, 0.3704 µM	1.02
SW1353, 1.111 µM	1.04
SW1353, 3.333 µM	0.85
SW1353, 10 µM	0.39
SYO-1, 0.00017 µM	0.968
SYO-1, 0.00051 µM	0.967
SYO-1, 0.00152 µM	0.96
SYO-1, 0.00457 µM	0.95
SYO-1, 0.01372 µM	0.948
SYO-1, 0.04115 µM	0.944
SYO-1, 0.1235 µM	0.916
SYO-1, 0.3704 µM	0.773
SYO-1, 1.111 µM	0.626
SYO-1, 3.333 µM	0.509
SYO-1, 10 µM	0.137
